Data reported in ChEMBL document CHEMBL4342498, “Design and Discovery of an Orally Efficacious Spiroindolinone-Based Tankyrase Inhibitor for the Treatment of Colon Cancer” (J Med Chem, 2020).
Active and inactive are the calls of the source. No cut-off for these calls is given here.

Legend:
[1] = target: T1, Protein mono-ADP-ribosyltransferase PARP10 (Homo sapiens, UniProt Q53GL7); assay: Inhibition of human recombinant N-terminal TEV-cleavgae site-fused-FLAG/Polyhis-tagged PARP10 […] expressed in Escherichia coli assessed as reduction in auto-PARylation using histone as substrate measured after 45 mins in presence of biotinylated-NAD+ by ELISA
T1 sequence (Q53GL7 whole entry): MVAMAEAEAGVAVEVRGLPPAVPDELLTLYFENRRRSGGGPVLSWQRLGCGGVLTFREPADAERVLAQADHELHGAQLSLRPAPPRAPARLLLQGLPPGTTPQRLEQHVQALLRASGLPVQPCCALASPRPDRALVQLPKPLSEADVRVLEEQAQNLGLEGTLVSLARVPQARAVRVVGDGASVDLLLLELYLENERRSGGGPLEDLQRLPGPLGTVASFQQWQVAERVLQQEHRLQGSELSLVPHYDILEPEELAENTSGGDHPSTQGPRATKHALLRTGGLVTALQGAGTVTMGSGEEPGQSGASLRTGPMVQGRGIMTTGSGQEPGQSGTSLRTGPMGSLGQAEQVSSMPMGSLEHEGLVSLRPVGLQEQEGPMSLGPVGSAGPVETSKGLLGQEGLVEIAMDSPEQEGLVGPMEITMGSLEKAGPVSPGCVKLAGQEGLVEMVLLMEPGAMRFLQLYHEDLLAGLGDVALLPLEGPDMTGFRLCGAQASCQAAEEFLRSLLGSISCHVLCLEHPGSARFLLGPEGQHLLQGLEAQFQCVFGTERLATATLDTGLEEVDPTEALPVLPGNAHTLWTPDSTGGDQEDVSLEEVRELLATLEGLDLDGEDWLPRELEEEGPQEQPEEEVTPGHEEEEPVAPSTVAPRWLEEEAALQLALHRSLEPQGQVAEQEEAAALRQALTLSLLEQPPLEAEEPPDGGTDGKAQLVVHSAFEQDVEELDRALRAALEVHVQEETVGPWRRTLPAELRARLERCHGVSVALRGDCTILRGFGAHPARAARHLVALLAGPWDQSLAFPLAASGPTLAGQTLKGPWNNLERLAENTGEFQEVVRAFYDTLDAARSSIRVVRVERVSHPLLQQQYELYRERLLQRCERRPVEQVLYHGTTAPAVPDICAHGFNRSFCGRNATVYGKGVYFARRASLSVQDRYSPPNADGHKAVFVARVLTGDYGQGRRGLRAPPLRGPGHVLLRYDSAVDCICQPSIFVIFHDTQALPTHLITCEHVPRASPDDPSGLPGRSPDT

[2] = Toxicity in human COLO320DM cells xenografted Prkdc-NOD-SCID CB17 mouse assessed as reduction in appetite at 50 mg/kg, ip administered twice daily for 5 days followed by 2 days interval for 2 cycles; details: in vivo
COLO 320DM = assay: Antiproliferative activity against human COLO320DM cells assessed inhibition of cell growth measured after 5 days by MTT assay; type: functional; details: 120 h
[3] = Toxicity in human COLO320DM cells xenografted Prkdc-NOD-SCID CB17 mouse assessed as epithelial degeneration at 50 mg/kg, ip administered twice daily for 5 days followed by 2 days interval for 2 cycles; details: in vivo
Cytochrome P450 2C8 = target: T2, Cytochrome P450 2C8 (Homo sapiens, UniProt P10632); assay: Inhibition of CYP2C8 in human liver microsomes using amodiaquine as substrate preincubated for 5 mins followed by NADPH addition and measured for 10 to 30 mins by LC-MS/MS analysis; type: ADME
T2 sequence (P10632 whole entry): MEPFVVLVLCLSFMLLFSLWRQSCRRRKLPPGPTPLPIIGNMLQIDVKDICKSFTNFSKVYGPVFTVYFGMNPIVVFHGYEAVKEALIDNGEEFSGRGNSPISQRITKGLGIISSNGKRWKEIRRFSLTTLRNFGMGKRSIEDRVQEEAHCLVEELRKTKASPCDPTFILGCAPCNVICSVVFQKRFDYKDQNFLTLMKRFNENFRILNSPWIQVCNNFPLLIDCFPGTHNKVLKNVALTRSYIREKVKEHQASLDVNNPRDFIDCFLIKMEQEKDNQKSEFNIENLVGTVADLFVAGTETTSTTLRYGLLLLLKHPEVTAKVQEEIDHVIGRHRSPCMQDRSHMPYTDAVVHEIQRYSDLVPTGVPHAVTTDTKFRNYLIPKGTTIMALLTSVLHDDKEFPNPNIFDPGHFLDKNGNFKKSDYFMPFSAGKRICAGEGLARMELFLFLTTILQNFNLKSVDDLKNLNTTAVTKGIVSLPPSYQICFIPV

[4] = Oral bioavailability in Sprague-Dawley rat at 3 mg/kg; type: ADME, organism-based; details: in vivo
Mus musculus = assay: In vivo inhibition of TNSK/TNSK2-medited WNT/beta-catenin signaling in human COLO320DM cells xenografted Prkdc-NOD-SCID CB17 mouse assessed as upregulation of AXIN2 expression in tumor cytosolic extract at 10 to 20 mg/kg, po administered twice daily for 5 days followed by 2 days interval for 2 cycles measured 4 hrs post-last dose by Western blot analysis; type: functional, organism-based
[5] = target: Poly [ADP-ribose] polymerase 1 (Homo sapiens, UniProt P09874); assay: Inhibition of recombinant human PARP1 expressed in Escherichia coli assessed as reduction in auto-PARylation using histone as substrate measured after 45 mins in presence of biotinylated-NAD+ by ELISA
Poly [ADP-ribose] polymerase 1, sequence (P09874 whole entry): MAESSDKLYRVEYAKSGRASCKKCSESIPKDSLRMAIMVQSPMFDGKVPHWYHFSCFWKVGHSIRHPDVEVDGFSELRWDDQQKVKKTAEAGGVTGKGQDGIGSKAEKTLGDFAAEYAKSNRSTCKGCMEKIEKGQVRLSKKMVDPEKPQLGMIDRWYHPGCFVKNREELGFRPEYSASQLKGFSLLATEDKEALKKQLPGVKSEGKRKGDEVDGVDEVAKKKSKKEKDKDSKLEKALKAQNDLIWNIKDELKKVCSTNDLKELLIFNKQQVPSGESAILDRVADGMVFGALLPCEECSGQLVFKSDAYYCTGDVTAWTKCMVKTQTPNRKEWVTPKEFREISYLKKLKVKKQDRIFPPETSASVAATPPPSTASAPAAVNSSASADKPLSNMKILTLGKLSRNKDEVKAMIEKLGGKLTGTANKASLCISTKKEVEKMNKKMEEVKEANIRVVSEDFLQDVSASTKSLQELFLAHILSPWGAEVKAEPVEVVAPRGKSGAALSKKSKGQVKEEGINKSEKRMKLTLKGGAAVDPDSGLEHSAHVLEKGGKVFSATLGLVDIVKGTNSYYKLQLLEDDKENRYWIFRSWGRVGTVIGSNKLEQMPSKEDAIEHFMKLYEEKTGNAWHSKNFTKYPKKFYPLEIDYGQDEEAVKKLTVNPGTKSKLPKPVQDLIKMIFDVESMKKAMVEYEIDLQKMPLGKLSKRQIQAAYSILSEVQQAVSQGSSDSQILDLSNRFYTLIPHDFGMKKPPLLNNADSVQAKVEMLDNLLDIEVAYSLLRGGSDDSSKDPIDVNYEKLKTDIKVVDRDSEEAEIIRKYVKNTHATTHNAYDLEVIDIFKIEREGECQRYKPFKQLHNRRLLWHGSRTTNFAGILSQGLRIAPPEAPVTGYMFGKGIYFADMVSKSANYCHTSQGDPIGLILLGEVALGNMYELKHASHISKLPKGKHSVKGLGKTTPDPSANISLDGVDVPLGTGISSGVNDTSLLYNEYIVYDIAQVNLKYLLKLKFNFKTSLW

Cytochrome P450 2C9 = Cytochrome P450 2C9 (Homo sapiens, UniProt P11712); assay: Inhibition of CYP2C9 in human liver microsomes using diclofenac as substrate preincubated for 5 mins followed by NADPH addition and measured for 10 to 30 mins by LC-MS/MS analysis; type: ADME
Cytochrome P450 2C9, sequence (P11712 whole entry): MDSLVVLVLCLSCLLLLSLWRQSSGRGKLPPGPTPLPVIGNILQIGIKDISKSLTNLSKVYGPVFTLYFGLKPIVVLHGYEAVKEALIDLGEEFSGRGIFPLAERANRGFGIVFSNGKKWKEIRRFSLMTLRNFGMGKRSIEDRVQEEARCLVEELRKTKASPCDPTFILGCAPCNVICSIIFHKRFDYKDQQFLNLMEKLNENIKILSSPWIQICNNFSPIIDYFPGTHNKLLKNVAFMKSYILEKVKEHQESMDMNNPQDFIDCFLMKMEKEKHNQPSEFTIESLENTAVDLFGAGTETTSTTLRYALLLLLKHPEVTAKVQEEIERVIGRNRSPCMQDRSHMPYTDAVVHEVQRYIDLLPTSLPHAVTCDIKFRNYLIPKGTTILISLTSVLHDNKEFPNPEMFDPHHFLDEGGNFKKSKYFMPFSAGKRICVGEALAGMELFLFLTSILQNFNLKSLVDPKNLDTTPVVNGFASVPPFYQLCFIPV

Cytochrome P450 2B6 = target: T3, Cytochrome P450 2B6 (Homo sapiens, UniProt P20813); assay: Inhibition of CYP2B6 in human liver microsomes using bupropion as substrate preincubated for 5 mins followed by NADPH addition and measured for 10 to 30 mins by LC-MS/MS analysis; type: ADME
T3 sequence (P20813 whole entry): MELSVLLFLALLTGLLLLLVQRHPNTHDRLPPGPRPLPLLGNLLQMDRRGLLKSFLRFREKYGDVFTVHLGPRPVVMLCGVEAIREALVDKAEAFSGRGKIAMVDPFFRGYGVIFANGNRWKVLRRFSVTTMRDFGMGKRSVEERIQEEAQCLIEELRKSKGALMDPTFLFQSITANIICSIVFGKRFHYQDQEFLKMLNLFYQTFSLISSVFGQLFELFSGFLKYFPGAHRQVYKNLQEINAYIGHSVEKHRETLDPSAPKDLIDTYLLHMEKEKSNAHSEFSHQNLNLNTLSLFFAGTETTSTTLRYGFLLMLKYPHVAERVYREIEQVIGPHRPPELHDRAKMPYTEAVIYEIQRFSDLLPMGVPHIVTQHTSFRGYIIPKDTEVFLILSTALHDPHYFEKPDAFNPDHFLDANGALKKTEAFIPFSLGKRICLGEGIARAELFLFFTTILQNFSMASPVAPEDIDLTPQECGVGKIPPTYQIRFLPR

For `C[C@@H]1CN(c2cc(F)c3c(c2)N(C)C(=O)C32CCN(c3nc4c(c(=O)[nH]3)CCCN4C)CC2)C[C@H](C)O1`, the IC50 [1] was 8.05 µM, the Activity [2] was “Toxic” and the GI50 (COLO 320DM) was 0.035 µM. For the same compound, the Activity [3] was “Toxic”, the IC50 (Cytochrome P450 2C8) was over 10 µM and the bioavailability [4] was 100%. For the same compound, the inhibition (Mus musculus) was “Active”, the IC50 [5] was 18.2 µM and the IC50 (Cytochrome P450 2C9) was over 10 µM. It also gave an IC50 (Cytochrome P450 2B6) of over 10 µM and a Ratio IC50 (Homo sapiens) of 223.
